Assay results: PubChem BioAssay (NCI)
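Values below derive from 48-hour exposures of cells grown in 96-well plates, with endpoints linearly interpolated between the two concentrations bracketing the appropriate inhibition level. Definition used: TGI = concentration required for complete inhibition of growth.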

Assays:
Assay in all cases: NCI tumour cell line growth inhibition, 48 h
[1] = system: ACHN renal
[2] = system: CAKI-1 renal
[3] = system: CCRF-CEM leukemia
[4] = system: DU-145 prostate
[5] = system: EKVX NSCLC
[6] = system: HCC-2998 colon
[7] = system: HT29 colon
[8] = system: KM12 colon
[9] = system: OVCAR-4 ovarian
[10] = system: SR leukemia
[11] = system: T-47D breast
[12] = system: UO-31 renal

| Compound | TGI [1] [µM] | TGI [2] [µM] | TGI [3] [µM] | TGI [4] [µM] | TGI [5] [µM] | TGI [6] [µM] | TGI [7] [µM] | TGI [8] [µM] | TGI [9] [µM] | TGI [10] [µM] | TGI [11] [µM] | TGI [12] [µM] |
| --- | --- | --- | --- | --- | --- | --- | --- | --- | --- | --- | --- | --- |
| O=C1OC[C@@H]2Cc3c([nH]c4ccccc34)[C@@H](c3ccc(O)cc3)N12 | > 74.2 | 97.5 | > 84.4 | > 100 | > 100 | > 96.7 | 98.4 | 53.1 | > 86.4 | > 87.4 | > 100 | > 100 |
| CCOC(=O)c1c(SCCN2CCCC2)n(-c2ccccc2)c(=S)n(-c2ccccc2)c1=O | 3.17 | 5.23 | 4.14 | 3.11 | 27 | 3.53 | 11.5 | 29.8 | 27 | 2.05 | 9.41 | – |
| CCOC(=O)C1C(=O)CC(O)(c2ccccc2)C(C(=O)OCC)C1c1ccc(OC)cc1 (stereo not drawn) | > 100 | > 100 | 79.2 | > 100 | > 100 | > 100 | 35.9 | 39.8 | > 100 | 32.5 | > 100 | > 100 |
| CC1=CC(=O)N(n2c(C)n[nH]c2=O)C1=O | > 100 | > 100 | > 100 | > 100 | > 100 | > 100 | > 100 | > 100 | > 100 | > 100 | > 100 | > 100 |
| CN(O)C(=O)Cc1ccc(OCc2cccc(Cl)c2)cc1 | > 100 | > 100 | > 100 | > 100 | > 100 | > 100 | > 100 | > 100 | > 100 | > 100 | > 100 | > 100 |
| Cc1cccc(N(CCC#N)S(=O)(=O)c2ccccc2)c1 | > 100 | > 100 | > 100 | > 100 | > 100 | > 100 | > 100 | > 100 | > 100 | > 100 | > 100 | > 100 |
| CCn1c(=O)c2c3cc(O)ccc3oc2c2ccc(O)cc21 | 66.1 | > 100 | > 100 | > 100 | 62.6 | 50.9 | 77.5 | > 100 | > 100 | 63.5 | 36.5 | 46.6 |
| O=C1N[C@@H]2c3c(csc3Br)C(=O)[C@@H]2O1 | > 100 | 43.1 | 40.1 | > 100 | > 100 | 39.1 | > 100 | > 100 | – | 74.1 | 99 | 58.4 |
| O=C1/C(=C/c2ccc([N+](=O)[O-])cc2)CNC/C1=C\c1ccc([N+](=O)[O-])cc1 | 25.3 | 4.67 | 2.97 | 35.6 | 33.9 | 23.4 | 3.57 | 4.41 | > 50.9 | 1.15 | > 81.3 | 19.6 |
| CN1CN(c2ccccc2)C2(CCN(CCCC3(c4cccs4)OCCO3)CC2)C1=O | > 100 | > 100 | > 100 | > 100 | > 100 | > 100 | > 100 | > 100 | > 100 | > 100 | > 100 | > 100 |
| CCOP(=O)(OCC)/C(F)=C/c1ccccc1 | > 100 | > 100 | > 100 | > 100 | > 100 | > 100 | > 100 | > 100 | > 100 | > 100 | > 100 | > 100 |
| C=CC/C(C(=O)OC)=C(/C(=O)OC)N(CCC)CCC | > 100 | > 100 | > 100 | > 100 | > 100 | > 100 | > 100 | > 100 | > 100 | 55.3 | > 100 | > 100 |
| C(=Nc1ccc(-c2nc3ccccc3s2)cc1)c1ccco1 | > 100 | > 100 | > 100 | > 100 | > 100 | > 100 | > 100 | > 100 | > 100 | > 100 | > 100 | > 100 |
| O=C1/C(=C/c2ccc(F)cc2)CNC/C1=C\c1ccc(F)cc1 | 3.18 | 3.4 | > 100 | 3.96 | 4.64 | 1.74 | 7.4 | 1.59 | > 36.8 | > 100 | 20.3 | 3.3 |
| N#Cc1c(OCCF)c2ccccc2n2c1nc1ccccc12 | > 100 | > 100 | > 100 | > 100 | > 100 | > 100 | > 100 | > 100 | 92 | > 100 | > 100 | > 100 |
